The source of these data is patent US20240261414A1, “FATTY ACID AMIDE HYDROLASE (FAAH) CLEAVABLE PRODRUGS OF BRAIN TARGETING ACTIVES AND COMBINATION WITH PERIPHERALLY RESTRICTED FAAH INHIBITORS” (Autobahn Therapeutics, Inc., priority 2021, published 2024).

The assay has as its target T1, recombinant human FAAH (rhFAAH) (Homo sapiens, UniProt O00519).
T1 construct: purchased Cayman Chemical (Ann Arbor, MI, USA)
T1 sequence (O00519 1-579): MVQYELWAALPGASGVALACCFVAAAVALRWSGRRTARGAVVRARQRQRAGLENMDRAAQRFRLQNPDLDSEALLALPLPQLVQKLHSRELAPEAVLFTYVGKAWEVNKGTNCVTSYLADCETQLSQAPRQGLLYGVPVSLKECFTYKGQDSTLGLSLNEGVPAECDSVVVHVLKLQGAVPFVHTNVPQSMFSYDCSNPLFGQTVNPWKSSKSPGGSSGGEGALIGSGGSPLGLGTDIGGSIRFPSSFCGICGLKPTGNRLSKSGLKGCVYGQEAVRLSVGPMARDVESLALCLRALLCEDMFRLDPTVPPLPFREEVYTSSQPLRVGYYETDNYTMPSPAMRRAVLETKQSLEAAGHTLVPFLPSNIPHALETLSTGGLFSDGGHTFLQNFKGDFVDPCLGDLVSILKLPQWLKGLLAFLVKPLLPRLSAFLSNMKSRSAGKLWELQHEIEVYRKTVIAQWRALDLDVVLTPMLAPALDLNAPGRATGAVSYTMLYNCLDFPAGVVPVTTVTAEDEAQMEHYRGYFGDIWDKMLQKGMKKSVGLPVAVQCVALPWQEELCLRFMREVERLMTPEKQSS
Nature of the assay: FAAH substrate evaluation (acid metabolite formation). The format is biochemical. As to conditions: 0.5 ng/L rhFAAH, 1 μM test compound, Tris-EDTA buffer pH 8.0, room temperature, 0-60 minutes. The procedure: Purified recombinant human FAAH (rhFAAH) was purchased from Cayman Chemical (Ann Arbor, MI, USA). The total volume for each incubation was 400 μL containing a final 0.5 ng/L rhFAAH, 1 μM test compound, 1.25% ethanol or 1 μM PF-3845 (FAAH inhibitor), and 0.1% bovine serum albumin in Tris-EDTA buffer at pH 8.0). The positive control was LL-341001. The incubation was conducted at the room temperature. At 0, 5, 15, 30 and 60 minutes, an aliquot of 30 μL reaction mixtures was removed and mixed with 300 μL acetonitrile containing 5 ng/mL terfenadine and 10 ng/mL tolbutamide as internal standards to quench the reaction. The resulting mixture was centrifuged at 4000 rpm, 4° C. for 15 minutes, and 100 μL supernatant was ready for LC-MS/MS analysis to measure the formation of acid metabolite.
Acquity Ultra Performance LC system from Waters was used for sample analysis. The chromatography was performed on a reverse phase Kinetex 2.6 μm C18 column, 2.1×30 mm, 100 Å. The mobile phase A comprised of 0.1% formic acid in water and mobile phase B comprised of 0.1% formic acid in acetonitrile with a 2-min run time at the flow rate of 0.8 mL/min for the acid metabolite from positive control or a 1.5 min run time at the flow rate of 0.9 mL/min for the acid metabolite of test compounds. The mass spectrometer (API-5500 and API Q Trap 4000 Applied Biosystems/MDS SCIEX Instruments, Framingham, MA, USA) was operated under ESI positive or negative ion MRM mode.
The formation of acid metabolite was monitored and quantified using one calibration point of 1 μM. The observed rate constant (ke) for the acid metabolite formation was calculated by plotting the metabolite concentration versus time of incubation with the slope being ke and is shown in Table 2.
Turning to `Cc1c(C=CC(=O)NCCO)ccc(OCc2cc(Cl)cc3c2OC(C)(C)C3)c1C` [Compound 11, 3-(4-((5-chloro-2,2-dimethyl-2,3-dihydrobenzofuran-7-yl)methoxy)-2,3-dimethylphenyl)-N-(2-hydroxyethyl)propenamide], the “ke (observed rate constant for the acid metabolite formation)” value (shortened to “ke”) was “A (ke is more than or equal to 1.0)”.

`CNC(=O)CCc1ccc(OCc2cc(Cl)cc3c2OC(C)(C)C3)c(C)c1C` [Compound 10, 3-(4-((5-chloro-2,2-dimethyl-2,3-dihydrobenzofuran-7-yl)methoxy)-2,3-dimethylphenyl)-N-methylpropanamide]: the “ke” value is on record as “A (ke is more than or equal to 1.0)”.

As to `Cc1c(C=CC(=O)Nc2cccnn2)ccc(OCc2cc(Cl)cc3c2OC(C)(C)C3)c1C` [Compound 2, 3-(4-((5-chloro-2,2-dimethyl-2,3-dihydrobenzofuran-7-yl)methoxy)-2,3-dimethylphenyl)-N-(pyridazin-3-yl)propenamide], the “ke” value is “B (ke is less than 1.0 and more than or equal to 0.1)”.

Regarding `CCc1cc(/C(C)=N/OCc2ccc(C3CCCCC3)c(C(F)(F)F)c2)ccc1CN1CC(C(=O)NC2CC2F)C1` (stereo not shown) [Compound 28], the “ke” value is listed as “D (ke is 0)”.

On to `CCc1cc(/C(C)=N/OCc2ccc(C3CCCCC3)c(C(F)(F)F)c2)ccc1CN1CC(C(=O)NCCO)C1` [Compound 17], for which the “ke” value is reported as “A (ke is more than or equal to 1.0)”.

Regarding `CCCCC[C@H](O)CC[C@@H]1[C@H]2Cc3cccc(OCC(=O)NC4CC4)c3C[C@H]2C[C@H]1O` [Compound 12], the “ke” value was “C (ke is less than 0.1 and more than 0)”.

On to `Cc1n[nH]c(C)c1CCCOc1cc(C(N)=O)ccc1F` [Compound 36], for which the “ke” value is “D (ke is 0)”.

Consider `CCCCC[C@H](O)CC[C@@H]1[C@H]2Cc3cccc(OCC(=O)N[C@H]4C[C@H]4F)c3C[C@H]2C[C@H]1O` [Compound 49], for which the “ke” value was “C (ke is less than 0.1 and more than 0)”.

`Cc1c(CCC(=O)NC2CC2)ccc(OCc2cc(Cl)cc3c2OC(C)(C)C3)c1C` [Compound 3, 3-(4-((5-chloro-2,2-dimethyl-2,3-dihydrobenzofuran-7-yl)methoxy)-2,3-dimethylphenyl)-N-cyclopropylpropanamide]: the “ke” value was “B (ke is less than 1.0 and more than or equal to 0.1)”.

Regarding `CNC(=O)c1ccc2nc(-c3cc(Cl)cc(Cl)c3)oc2c1` [Compound 16], the “ke” value is “D (ke is 0)”.

As for `Cc1noc(-c2ccc(CSCCC(=O)Nc3cccnn3)cc2)c1NC(=O)O[C@H](C)c1ccccc1Cl` [Compound 41], the “ke” value is “B (ke is less than 1.0 and more than or equal to 0.1)”.

Regarding `O=C(Nc1ccncc1)c1ccc2nc(-c3cc(Cl)cc(Cl)c3)oc2c1` [Compound 57], the “ke” value was “D (ke is 0)”.

For `COc1ccc(NC(=O)c2ccc3nc(-c4cc(Cl)cc(Cl)c4)oc3c2)nn1` [Compound 37], the “ke” value was “B (ke is less than 1.0 and more than or equal to 0.1)”.

For `Cc1c(CCC(=O)Nc2ccncc2)ccc(OCc2cc(Cl)cc3c2OC(C)(C)C3)c1C` [Compound 35], the “ke” value is “B (ke is less than 1.0 and more than or equal to 0.1)”.

On to `Cc1noc(NC(=O)CCSCc2ccc(-c3onc(C)c3NC(=O)OC(C)c3ccccc3Cl)cc2)c1C` (stereo not shown) [Compound 34], for which the “ke” value is “D (ke is 0)”.

On to `COc1ccc(NC(=O)c2ccc(F)c(OCCCc3c(C)n[nH]c3C)c2)cn1` [Compound 29], for which the “ke” value is “B (ke is less than 1.0 and more than or equal to 0.1)”.

Consider `CNC(=O)CCSCc1ccc(-c2onc(C)c2NC(=O)O[C@H](C)c2ccccc2Cl)cc1` [Compound 23], for which the “ke” value is “B (ke is less than 1.0 and more than or equal to 0.1)”.

As for `Cc1noc(-c2ccc(NC(=O)CCC(=O)NC3CC3)cc2F)c1NC(=O)O[C@H](C)c1ccccc1Cl` [Compound 31], the “ke” value was “D (ke is 0)”.

Regarding `O=C(Nc1ccnnc1)c1ccc2nc(-c3cc(Cl)cc(Cl)c3)oc2c1` [Compound 50], the “ke” value was “A (ke is more than or equal to 1.0)”.

In the case of `Cc1c(C=CC(=O)N[C@@H]2C[C@H]2F)ccc(OCc2cc(Cl)cc3c2OC(C)(C)C3)c1C` [Compound 4, 3-(4-((5-chloro-2,2-dimethyl-2,3-dihydrobenzofuran-7-yl)methoxy)-2,3-dimethylphenyl)-N-((1R,2R)-2-fluorocyclopropyl)propenamide], the “ke” value was “B (ke is less than 1.0 and more than or equal to 0.1)”.

Consider `Cc1c(C=CC(=O)NCCCF)ccc(OCc2cc(Cl)cc3c2OC(C)(C)C3)c1C` [Compound 6, 3-(4-((5-chloro-2,2-dimethyl-2,3-dihydrobenzofuran-7-yl)methoxy)-2,3-dimethylphenyl)-N-(3-fluoropropyl)propenamide], for which the “ke” value was “B (ke is less than 1.0 and more than or equal to 0.1)”.

`O=C(C[C@H]1CCc2c1[nH]c1ccc(OCc3ccc(C4CCCC4)c(C(F)(F)F)c3)cc21)Nc1ccncc1` [Compound 47]: the “ke” value is listed as “D (ke is 0)”.

Take `CCCCC[C@H](O)CC[C@@H]1[C@H]2Cc3cccc(OCC(=O)N[C@H]4C[C@@H]4F)c3C[C@H]2C[C@H]1O` [Compound 48]: the “ke” value was “B (ke is less than 1.0 and more than or equal to 0.1)”.

For the compound `Cc1noc(-c2ccc(CSCCC(=O)N[C@H]3C[C@H]3F)cc2)c1NC(=O)OC(C)c1ccccc1Cl` (stereo partly shown) [Compound 45], the “ke” value was “C (ke is less than 0.1 and more than 0)”.

For the compound `CCCCC[C@H](O)CC[C@@H]1[C@H]2Cc3cccc(OCC(=O)Nc4cccnn4)c3C[C@H]2C[C@H]1O` [Compound 53], the “ke” value is recorded as “A (ke is more than or equal to 1.0)”.

In the case of `O=C(C[C@H]1CCc2c1[nH]c1ccc(OCc3ccc(C4CCCC4)c(C(F)(F)F)c3)cc21)Nc1cccnn1` [Compound 43], the “ke” value is “B (ke is less than 1.0 and more than or equal to 0.1)”.

With `Cc1noc(-c2ccc(CSCCC(=O)NCCCF)cc2)c1NC(=O)O[C@H](C)c1ccccc1Cl` [Compound 46], the “ke” value was “C (ke is less than 0.1 and more than 0)”.

With `Cc1noc(-c2ccc(CSCCC(=O)Nc3ccncc3)cc2)c1NC(=O)OC(C)c1ccccc1Cl` (stereo not shown) [Compound 44], the “ke” value was “B (ke is less than 1.0 and more than or equal to 0.1)”.

Regarding `Cc1noc(-c2ccc(NC(=O)CCC(=O)NCCCF)cc2F)c1NC(=O)O[C@H](C)c1ccccc1Cl` [Compound 30], the “ke” value is “B (ke is less than 1.0 and more than or equal to 0.1)”.

Take `CCc1cc(/C(C)=N/OCc2ccc(C3CCCCC3)c(C(F)(F)F)c2)ccc1CN1CC(C(=O)NCCCF)C1` [Compound 39]: the “ke” value was “B (ke is less than 1.0 and more than or equal to 0.1)”.

Consider `CCc1cc(/C(C)=N/OCc2ccc(C3CCCCC3)c(C(F)(F)F)c2)ccc1CN1CC(C(=O)Nc2ccncc2)C1` [Compound 38], for which the “ke” value was “A (ke is more than or equal to 1.0)”.

Take `COc1ccc(NC(=O)c2ccc3nc(-c4cc(Cl)cc(Cl)c4)oc3c2)cn1` [Compound 51]: the “ke” value is given as “A (ke is more than or equal to 1.0)”.

For `Cc1noc(-c2ccc(CSCCC(N)=O)cc2)c1NC(=O)O[C@H](C)c1ccccc1Cl` [Compound 24], the “ke” value is “B (ke is less than 1.0 and more than or equal to 0.1)”.

Regarding `CNC(=O)C[C@H]1CCc2c1[nH]c1ccc(OCc3ccc(C4CCCC4)c(C(F)(F)F)c3)cc21` [Compound 21], the “ke” value is given as “D (ke is 0)”.
